Assay results from patent US20050148991A1, “Device for using patient blood as diluent in administering pharmaceuticals” (priority 2002, published 2005).

Assay: early study in humans receiving RSR13 via injection in a peripheral vein
Assay type: in vivo
Source text: Therefore, the use of RSR13 and its physiologically acceptable salts in the present methods is contemplated. The preparation and uses for 2-[4-[2-[(3,5-dimethylphenyl)amino]-2-oxoethyl]phenoxy]-2-methyl-propionic acid and its physiologically acceptable salts has been described previously in U.S. Pat. Nos. 5,049,695; 5,122,539; 5,290,803; 5,432,191; 5,525,630; 5,648,375; 5,661,182; 5,677,330; 5,705,521; 5,872,888; and 5,927,283, and pending U.S. patent application Ser. No. 10/082,130, filed Feb. 25, 2002.

Cc1cc(C)cc(NC(=O)Cc2ccc(OC(C)(C)C(=O)O)cc2)c1 [RSR13, 2-[4-[2-[(3,5-dimethylphenyl)amino]-2-oxoethyl]phenoxy]-2-methyl-propionic acid]
pain on injection: some recipients complained of pain near the site of injection and downstream
